Data published in patent publication US9499550B2 (BRISTOL-MYERS SQUIBB COMPANY, priority 2012, dated 2016).

Assays:
[1] = system: HCV genotype 1a (H77 strain) replicon in HUH-7 cells; assay: HCV replicon luciferase reporter assay, genotype 1a; format: cell-based; conditions: Hepatitis C virus, Huh-7, 72 h, HCV genotype 1a replicon luciferase assay, 3 days incubation, range class, read-out: LE_1a (EC50, range)
Outline: (§1)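 Replicon inhibition for both genotypes was measured as Renilla luciferase signal (EnduRen, 7.5 μM final, 2 h) after 3-day, 37° C exposure of replicon-bearing HUH-7 cells in 4% FCS DMEM, 0.5% DMSO. The 1b construct carries S1179I; the 1a H77 construct carries P1496L and S2204I. Twenty-point, 3-fold dilutions were fitted four-parametrically for EC50, and CC50 was taken from multiplexed Cell Titer-Blue.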

[2] = system: HCV genotype 1b (Con1) replicon in HUH-7 cells; assay: HCV replicon luciferase reporter assay, genotype 1b; format: cell-based; conditions: Hepatitis C virus, Huh-7, 72 h, HCV genotype 1b replicon luciferase assay, 3 days incubation, range class, read-out: LE_1b (EC50, range)
Outline: as §1

COc1ccc2c(O[C@@H]3C[C@H]4C(=O)N[C@]5(C(=O)NS(=O)(=O)C6(C)CC6)C[C@H]5/C=C\CC[C@H](C)C[C@@H](C)[C@H](NC(=O)O[C@@H]5C[C@@H]6C[C@@H]6C5)C(=O)N4C3)nc(N(C)C)cc2c1 [Compound 3110, (1R,3r,5S)-bicyclo[3.1.0]hexan-3-yl((2R,6S,7R,9S,13aS,14aR,16aS,Z)-2-((3-(dimethylamino)-6-methoxyisoquinolin-1-yl)oxy)-7,9-dimethyl-14a-(((1-methylcyclopropyl)sulfonyl)carbamoyl)-5,16-dioxo-1,2,3,5,6,7,8,9,10,11,13a,14,14a,15,16,16a-hexadecahydrocyclopropa[e]pyrrolo[1,2-a][1,4]diazacyclopentadecin-6-yl)carbamate]
EC50 [1]: 4.82 to 103 nM | EC50 [2]: 4.82 to 103 nM

COc1ccc2c(O[C@@H]3C[C@H]4C(=O)N[C@]5(C(=O)NS(=O)(=O)C6(C)CC6)C[C@H]5/C=C\CC[C@@H](C)C[C@@H](C)[C@H](NC(=O)O[C@@H]5C[C@@H]6C[C@@H]6C5)C(=O)N4C3)nc(N(C)C)cc2c1 [Compound 3111, (1R,3r,5S)-bicyclo[3.1.0]hexan-3-yl((2R,6S,7R,9R,13aS,14aR,16aS,Z)-2-((3-(dimethylamino)-6-methoxyisoquinolin-1-yl)oxy)-7,9-dimethyl-14a-(((1-methylcyclopropyl)sulfonyl)carbamoyl)-5,16-dioxo-1,2,3,5,6,7,8,9,10,11,13a,14,14a,15,16,16a-hexadecahydrocyclopropa[e]pyrrolo[1,2-a][1,4]diazacyclopentadecin-6-yl)carbamate]
EC50 [1]: < 5.46 nM | EC50 [2]: 4.82 to 103 nM

COc1ccc2c(O[C@@H]3C[C@H]4C(=O)N[C@]5(C(=O)NS(=O)(=O)C6(C)CC6)C[C@H]5/C=C\CC[C@H](C)C[C@@H](C)[C@H](NC(=O)O[C@H](C)C(F)(F)F)C(=O)N4C3)nc(N(C)C)cc2c1 [Compound 3112, (R)-1,1,1-trifluoropropan-2-yl ((2R,6S,7R,9S,13aS,14aR,16aS,Z)-2-((3-(dimethylamino)-6-methoxyisoquinolin-1-yl)oxy)-7,9-dimethyl-14a-(((1-methylcyclopropyl)sulfonyl)carbamoyl)-5,16-dioxo-1,2,3,5,6,7,8,9,10,11,13a,14,14a,15,16,16a-hexadecahydrocyclopropa[e]pyrrolo[1,2-a][1,4]diazacyclopentadecin-6-yl)carbamate]
EC50 [1]: 4.82 to 103 nM | EC50 [2]: 4.82 to 103 nM

COc1ccc2c(O[C@@H]3C[C@H]4C(=O)N[C@]5(C(=O)NS(=O)(=O)C6(C)CC6)C[C@H]5/C=C\CC[C@@H](C)C[C@@H](C)[C@H](NC(=O)O[C@H](C)C(F)(F)F)C(=O)N4C3)nc(N(C)C)cc2c1 [Compound 3113, (R)-1,1,1-trifluoropropan-2-yl ((2R,6S,7R,9R,13aS,14aR,16aS,Z)-2-((3-(dimethylamino)-6-methoxyisoquinolin-1-yl)oxy)-7,9-dimethyl-14a-(((1-methylcyclopropyl)sulfonyl)carbamoyl)-5,16-dioxo-1,2,3,5,6,7,8,9,10,11,13a,14,14a,15,16,16a-hexadecahydrocyclopropa[e]pyrrolo[1,2-a][1,4]diazacyclopentadecin-6-yl)carbamate]
EC50 [1]: < 5.46 nM | EC50 [2]: 4.82 to 103 nM

[2H]C([2H])([2H])C(OC(=O)N[C@@H]1C(=O)N2C[C@H](Oc3nc(N(C)C)cc4cc(OC)ccc34)C[C@H]2C(=O)N[C@]2(C(=O)NS(=O)(=O)C3(C)CC3)C[C@H]2/C=C\CC[C@H](C)C[C@H]1C)(C([2H])([2H])[2H])C(F)(F)F [Compound 3114, 1,1,1,3,3,3-hexadeutero-2-(trifluoromethyl)propan-2-yl((2R,6S,7R,9S,13aS,14aR,16aS,Z)-2-((3-(dimethylamino)-6-methoxyisoquinolin-1-yl)oxy)-7,9-dimethyl-14a-(((1-methylcyclopropyl)sulfonyl)carbamoyl)-5,16-dioxo-1,2,3,5,6,7,8,9,10,11,13a,14,14a,15,16,16a-hexadecahydrocyclopropa[e]pyrrolo[1,2-a][1,4]diazacyclopentadecin-6-yl)carbamate]
EC50 [1]: 4.82 to 103 nM | EC50 [2]: 4.82 to 103 nM
